In patent publication US10000467B2, “Cyanine compounds” (Pierce Biotechnology, Inc., priority 2012, dated 2018):

Legend:
[1] = system: HDAC2; experiment: Immunofluorescence in U2OS cells, rabbit-anti-HDAC2 primary antibody; type: cell-based, human
Protocol: (§1) The inventive compounds and commercial dye were evaluated for immunofluorescence in cell based assays using the following protocol. Plates containing U2OS cells (human osteosarcoma cell line) were fixed in 4% paraformaldehyde in PBS/0.1% Triton X-100 for 15 min at room temperature. The cells were then […] with 2% BSA in PBS/0.1% Triton X-100 for 15 min at room temperature. Negative controls contain only 2% BSA/PBS-0.1% Triton-X100 blocker. Diluted primary antibodies, mouse-anti-protein disulphide isomerase (PDI) or rabbit-anti-HDAC2, diluted in 2% BSA/PBS-0.1% Triton-X100 were added to the plates and incubated for one hour at room temperature. Negative controls contain only 2% BSA/PBS-0.1% Triton-X100 blocker. The plates were washed 3×100 μl with PBS. Based on the calculated protein concentrations, the conjugates made in Example 22 were diluted to 4 μg/ml in PBS/0.1% Triton X-100 and added to the plates (50 μl/well) and incubated one hour in the dark at room temperature. After incubation, the […] antibody solution was removed from the plates, and the plates were washed 3×100 μl with PBS. One hundred μl of 0.1 μg/ml Hoechst dye in PBS was added per well. The plates were then scanned on an ArrayScan® Plate Reader for imaging and quantitation.

[2] = system: protein disulphide isomerase (PDI); experiment: Immunofluorescence in U2OS cells, mouse-anti-PDI primary antibody; type: cell-based, human; conditions: FIGS. 17-19; GAM conjugates at 2.5×-15× molar excess
Protocol: as §1

[3] = FIGS. 20-22, GAR conjugates purified with 200 μl of resin/mg of protein

For Alexa Fluor 647, the Quenching ([1]; FIGS. 14-16, GAR conjugates at 2.5×-15× molar excess) was “significant quenching at high molar excesses”, the “Fluorescence intensity (Mean Total Intensity)” value [1, 3] was “highest binding intensity at 2.5× dye molar excess” and the Quenching [1, 3] was “significant quenching above 2.5× molar excess”. The “Fluorescence intensity (Mean Total Intensity)” value [2] was “highest binding intensity at 2.5× dye molar excess” and the Quenching [2] was “significant quenching above 2.5× molar excess”.
